Assay results taken from ChEMBL document CHEMBL3832548, “DailyMed|setid=ba1cca98-f350-4655-88e3-6ef990779fb9 | KETEK - telithromycin tablet, film coated|Physicians Total Care, Inc”.

Legend:
Type in all cases: ADME, organism-based
[1] = The pharmacokinetics of Telithromycin evaluated after administration of single 800-mg doses to healthy adult subjects.; design: dose 800 mg, route oral; settings: human, in vivo, dosed compound id 4, dosed compound name TELITHROMYCIN, gender adult male and female, regimen Single dose, tissue Plasma
[2] = The pharmacokinetics of Telithromycin evaluated after administration of multiple 800-mg doses to healthy adult subjects.; design: dose 800 mg, route oral; settings: human, in vivo, dosed compound id 4, dosed compound name TELITHROMYCIN, gender adult male and female, regimen Multiple dose, tissue Plasma
[3] = (§1) The pharmacokinetics of Telithromycin evaluated after administration of Ketek to subjects.; settings: human, in vivo; dosed compound id 4, dosed compound name TELITHROMYCIN, route oral, tissue Feces; read-out: Excretion
Homo sapiens = experiment: as §1; settings: in vivo, po, dosed compound id 4, dosed compound name TELITHROMYCIN, tissue Urine
[4] = po, 800 mg, read-out: AUC(0-24)

- Cmax ([1]; po, 800 mg): 1900 ng/mL
- AUC [1, 4]: 8250 ng·h/mL
- Tmax ([1]; dose 800 mg, route oral): 1 h
- half-life ([1]; dose 800 mg, route oral): 7.16 h
- concentration at 24 h ([1]; dose 800 mg, route oral, read-out: C(24h)): 30 ng/mL
- Cmax ([2]; po, 800 mg): 2270 ng/mL
- AUC [2, 4]: 12500 ng·h/mL
- Tmax ([2]; dose 800 mg, route oral): 1 h
- half-life ([2]; dose 800 mg, route oral): 9.81 h
- dose excreted [3]: 7%
- Excretion (Homo sapiens): 13%
Compound: CC[C@H]1OC(=O)[C@H](C)C(=O)[C@H](C)[C@@H](O[C@@H]2O[C@H](C)C[C@H](N(C)C)[C@H]2O)[C@](C)(OC)C[C@@H](C)C(=O)[C@H](C)[C@H]2N(CCCCn3cnc(-c4cccnc4)c3)C(=O)O[C@]12C [TELITHROMYCIN]
